Patent US8658690B2, “Use of novel compounds from fruiting body of Antrodia camphorata for treating an inflammatory disorder” (Well Shine Biotechnology Development Co., Ltd., priority 2008, dated 2014)
Converted amounts (≈) assume the structure as drawn.

What was measured:
Assay type in all cases: cell-based, murine
[1] = test system: RAW264.7 macrophage cells; assay: Cell viability by MTT method in RAW264.7 cells treated with compounds for 48 hours (no LPS); details: RAW264.7, no LPS, mean ± SD
Method: (§1) To evaluate the immunomodulatory effects of these new compounds, the in vitro production of cytokines in RA W264.7 cells were treated without or with the compounds of the invention at different concentrations for 48 hours. The supernatants were collected for TNF-α assay, and cells were collected for viability analysis by MTT method.

[2] = test system: LPS-stimulated RAW264.7 macrophage cells; assay: Cell viability by MTT method in LPS-stimulated RAW264.7 cells; details: 30 min pretreatment then 50 ng/mL LPS 48 hours
Method: (§2) IL-6, a proinflammatory cytokine which is a useful marker of infection, is secreted by macrophages in many infectious and inflammatory states, including cardiac surgery, cardiogenic shock, coronary bypass and bacteria sepsis (Kantar, M. et al., Eur. J. Pediatr. 2000, 159, 156-157). Serum concentration of IL-6 has been reported to correlate with disease severity (Pathan, N. et al., Lancet 2004, 363, 203-209). The productions of IL-6 from LPS-stimulated macrophages were measured to evaluate the anti-inflammation effect of the compounds. The cells were pretreated with compounds isolated from A. camphorata for 30 min and then stimulated with 50 ng/mL LPS for 48 hours. The supernatants were collected for TNF-α and IL-6 assay, and the cells were collected for viability analysis by MTT method.

TNF-α [3] = assay: TNF-α secretion in LPS-stimulated RAW264.7 cells, ELISA; details: 50 ng/mL LPS 48 hours, LPS control 3.81 ± 0.93
Method: (§3) The cytokine levels in culture supernatants were measured by sandwich ELISA methods as described by Chen and Lin (Chen, M. L. et al., Int. Arch. Allergy Immunol. 2007, 143, 21-30). More specifically, the anti-cytokine antibodies (PharMingen, San Diego, Calif.) were coated in the 96-well plates (Nunc, Roskilde, Denmark) after overnight incubation at 4° C. and having been blocked with 1% BSA PBS buffer for 30 min. The samples and standards (recombinant mouse cytokines, PharMingen) were added to the 96-well plates for 2 hours incubation. The biotin-conjugated antibodies (biotinylated rat anti-mouse cytokine monoclonal antibodies, PharMingen) were added and incubated. After washing, streptavidin-conjugated peroxidase was added for 1 hour. The substrates, 2,2′-azino-bis-3-ethyl-benzthiazoline-6-sulfonic acid (ABTS, Sigma), were added to each well for 20 min. The plates were read in a microplate autoreader (Microplate autoreader; Bio-Tek Instruments, Winooski, Vt.) at 405 nm.
as §2

TNF-α [4] = assay: Spontaneous TNF-α secretion by RAW264.7 cells, sandwich ELISA of supernatants; details: spontaneous, 48 hours, control 88 ± 45
Method: as §3, §1

IL-6 = IL-6 secretion in LPS-stimulated RAW264.7 cells, ELISA; details: for IL-6 (pg/mL) secretion: 50 ng/mL LPS 48 hours, LPS control 238 ± 86; for IC50: Mus musculus, LPS-stimulated RAW264.7, 50 ng/mL LPS 48 hours, highest tested concentration 10 μg/mL, read-out: IC50 of IL-6 production
Method: as §3, §2

Row | Structure (SMILES) | Cell viability (%) ([1]; 0.5 μg/mL) | Cell viability (%) ([1]; 1 μg/mL) | Cell viability (%) ([1]; 2 μg/mL) | Cell viability (%) ([1]; 5 μg/mL) | Cell viability (%) ([1]; 10 μg/mL) | Cell viability (%) ([2]; 0.5 μg/mL) | Cell viability (%) ([2]; 1 μg/mL) | Cell viability (%) ([2]; 5 μg/mL) | Cell viability (%) ([2]; 10 μg/mL) | TNF-α (ng/mL) secretion (TNF-α [3]; 0.5 μg/mL) | TNF-α (ng/mL) secretion (TNF-α [3]; 1 μg/mL) | TNF-α (ng/mL) secretion (TNF-α [3]; 5 μg/mL) | TNF-α (ng/mL) secretion (TNF-α [3]; 10 μg/mL) | TNF-α (pg/mL) secretion (TNF-α [4]; 0.5 μg/mL) | TNF-α (pg/mL) secretion (TNF-α [4]; 1 μg/mL) | TNF-α (pg/mL) secretion (TNF-α [4]; 2 μg/mL) | TNF-α (pg/mL) secretion (TNF-α [4]; 5 μg/mL) | TNF-α (pg/mL) secretion (TNF-α [4]; 10 μg/mL) | IL-6 (pg/mL) secretion (IL-6; 0.5 μg/mL) | IL-6 (pg/mL) secretion (IL-6; 1 μg/mL) | also measured
1 | COC(=O)/C(CC(C)C)=C(\C(=O)OC)c1ccc(O)cc1 [Compound 6, Dimethyl 2-(4-hydroxyphenyl)-3-isobutylmaleate] | 100 ± 6% | 99 ± 7% | 102 ± 6% | 95 ± 8% | 96 ± 11% | 108 ± 6% | 107 ± 7% | 106 ± 9% | 102 ± 10% | 3.61 ± 0.22 ng/mL | 3.70 ± 0.50 ng/mL | 3.80 ± 0.53 ng/mL | 3.32 ± 0.30 ng/mL | 100 ± 34 pg/mL | 114 ± 41 pg/mL | 90 ± 14 pg/mL | 110 ± 22 pg/mL | 116 ± 4 pg/mL | 235 ± 106 pg/mL | 215 ± 89 pg/mL | IL-6 (pg/mL) secretion (IL-6; 5 μg/mL): 209 ± 89 pg/mL; IL-6 (pg/mL) secretion (IL-6; 10 μg/mL): 179 ± 91 pg/mL; IC50 (IL-6): 25 µg/mL (≈ 85.5 µM)
2 | CC(C)CC1=C(c2ccc(O)cc2)C(=O)OC1=O [Compound 5, 3-(4-Hydroxyphenyl)-4-isobutylfuran-2,5-dione] | 101 ± 7% | 102 ± 5% | 99 ± 6% | 95 ± 9% | 86 ± 8 % | 106 ± 4 % | 105 ± 2 % | 102 ± 2% | 100 ± 3% | 3.44 ± 0.31 ng/mL | 4.06 ± 1.14 ng/mL | 4.67 ± 1.09 ng/mL | 3.63 ± 0.58 ng/mL | 100 ± 26 pg/mL | 102 ± 30 pg/mL | 90 ± 4 pg/mL | 94 ± 19 pg/mL | 106 ± 5 pg/mL | 221 ± 102 pg/mL | 227 ± 94 pg/mL | IL-6 (pg/mL) secretion (IL-6; 5 μg/mL): 225 ± 68 pg/mL; IL-6 (pg/mL) secretion (IL-6; 10 μg/mL): 215 ± 56 pg/mL; IC50 (IL-6): 96 µg/mL (≈ 390 µM)
3 | CC(C)CC1=C(c2ccc(O)cc2)C(=O)NC1=O [Compound 4, 3-(4-Hydroxyphenyl)-4-isobutyl-1H-pyrrole-2,5-dione] | 97 ± 13% | 99 ± 4% | 97 ± 5% | 94 ± 7% | 81 ± 8 % | 105 ± 6% | 103 ± 5% | 97 ± 5% | 92 ± 8% | 2.98 ± 0.24 ng/mL | 3.22 ± 0.35 ng/mL | 3.72 ± 0.23 ng/mL | 3.12 ± 0.61 ng/mL | 91 ± 38 pg/mL | 83 ± 22 pg/mL | 105 ± 13 pg/mL | 118 ± 23 pg/mL | 104 ± 25 pg/mL | 194 ± 81 pg/mL | 257 ± 40 pg/mL | IL-6 (pg/mL) secretion (IL-6; 5 μg/mL): 195 ± 83 pg/mL; IL-6 (pg/mL) secretion (IL-6; 10 μg/mL): 169 ± 63 pg/mL; IC50 (IL-6): 18 µg/mL (≈ 73.4 µM)
4 | CC(C)C[C@@H]1C(=O)N(O)C(=O)[C@H]1c1ccc(O)cc1 (relative stereo) [Compound 2, trans-1-Hydroxy-3-(4-hydroxyphenyl)-4-isobutylpyrrolidine-2,5-dione] | 106 ± 7% | 100 ± 5% | 100 ± 5% | 94 ± 6% | 90 ± 4 % | 110 ± 5 % | 111 ± 6 % | 111 ± 8 % | 109 ± 2 % | 3.34 ± 0.58 ng/mL | 4.04 ± 0.46 ng/mL | 4.76 ± 0.65 ng/mL | 3.66 ± 0.67 ng/mL | 108 ± 28 pg/mL | 97 ± 13 pg/mL | 105 ± 23 pg/mL | 96 ± 8 pg/mL | 128 ± 70 pg/mL | 216 ± 102 pg/mL | 224 ± 110 pg/mL | IL-6 (pg/mL) secretion (IL-6; 5 μg/mL): 210 ± 96 pg/mL; IL-6 (pg/mL) secretion (IL-6; 10 μg/mL): 191 ± 68 pg/mL; IC50 (IL-6): 54 µg/mL (≈ 205 µM)
5 | CC(C)C[C@H]1C(=O)OC(=O)[C@H]1c1ccc(O)cc1 (relative stereo) [Compound 3, cis-3-(4-Hydroxyphenyl)-4-isobutyldihydrofuran-2,5-dione] | 91 ± 9% | 87 ± 8% | 80 ± 9 % | 72± 11 % | 67 ± 15 % | 105 ± 6% | 104 ± 6% | 99 ± 3% | 91 ± 4 % | 3.17 ± 0.70 ng/mL | 3.64 ± 0.84 ng/mL | 3.88 ± 0.37 ng/mL | 3.90 ± 0.10 ng/mL | 55 ± 2 pg/mL | 74 ± 7 pg/mL | 68 ± 7 pg/mL | 68 ± 26 pg/mL | 77 ± 35 pg/mL | 214 ± 82 pg/mL | 234 ± 109 pg/mL | IL-6 (pg/mL) secretion (IL-6; 5 μg/mL): 185 ± 76 pg/mL; IL-6 (pg/mL) secretion (IL-6; 10 μg/mL): 147 ± 53 pg/mL; IC50 (IL-6): 17 µg/mL (≈ 68.5 µM)
